Reference: patent US11311501B2, “Mitoriboscins: mitochondrial-based therapeutics targeting cancer cells, bacteria, and pathogenic yeast” (LUNELLA BIOTECH, INC., priority 2017, dated 2022)
In brackets after ≈: the same amount, converted by molar mass.

How the values were obtained:
[1] = system: twelve different cell lines, representing eight different cancer types; conditions: cited from earlier work
[2] = system: MCF7 cells; assay: Seahorse XF96 metabolic flux analysis (OCR/ECAR); type: cell-based, human
Description: The present approach further involves methods of functional validation at step S105, during which a compound's function as a mitochondrial inhibitor may be confirmed. A number of methods may be used for functional validation, including, for example, metabolic flux analysis, mammosphere assays, viability assays, and antibiotic (anti-bacterial and/or anti-fungal) activity. For example, the inventors determined extracellular acidification rates (ECAR) and real-time oxygen consumption rates (OCR) for MCF7 cells using the Seahorse Extracellular Flux (XF96) analyzer (Seahorse Bioscience, MA, USA). MCF7 cells were maintained in DMEM supplemented with 10% FBS (fetal bovine serum), 2 mM GlutaMAX, and 1% Pen-Strep. 5,000 cells per well were seeded into XF96-well cell culture plates, and incubated overnight at 37° C. in a 5% CO2 humidified atmosphere. After 24 hours, cells were treated with selected compounds showing ATP-depletion without prominent cytotoxicity at various concentrations (or vehicle alone). After 72 hours of treatment, cells were washed in pre-warmed XF assay media (for OCR measurement, XF assay media was supplemented with 10 mM glucose, 1 mM Pyruvate, 2 mM L-glutamine and adjusted at pH 7.4). Cells were maintained in 175 μL/well of XF assay media at 37° C. in a non-CO2 incubator for 1 hour. During incubation, 25 μL of 80 mM glucose, 9 μM oligomycin, 1M 2-deoxyglucose (for ECAR measurement) and 25 μL of 10 μM oligomycin, 9 μM FCCP, 10 μM rotenone, 10 μM antimycin A (for OCR measurement) in XF assay media was loaded into the injection ports of the XFe-96 sensor cartridge. During the experiment, the instrument injected these inhibitors into the wells at a given time point, while ECAR/OCR was measured continuously. ECAR and OCR measurements were normalized by protein content (using the Sulphorhodamine B assay). Data sets were analyzed by XFe-96 software, using one-way ANOVA and Student's t-test calculations. All experiments were performed in triplicate, and results validated the mitochondrial inhibition effects of mitoriboscin compounds described herein. It should be appreciated that numerous methods are known for functional validation, and that persons of skill in the art may select one or more depending on the validation needs (e.g., other assays that measure or approximate mitochondrial function). The present approach involves methods of function validation of mitoriboscin compounds. For example, the inventors assessed functional validation of three candidates using the Seahorse Analyzer, which quantitatively measures oxygen consumption rate (OCR) and extracellular acidification rate (ECAR). OCR is a surrogate marker for OXPHOS and ECAR is a surrogate marker for glycolysis and L-lactate production.

[3] = system: MCF7 cell monolayers; assay: Cell viability of MCF7 monolayers (SRB); type: cell-based, human; conditions: FIG. 6
Procedure: (§1) The present approach includes methods of confirming cell viability. Persons of skill in the art may select one or more methods for confirming cell viability suitable for the particular embodiment. The inventors initially used the Sulphorhodamine (SRB) assay, which is based on the measurement of cellular protein content. After treatment for 72 hours in 96-well plates, cells were fixed with 10% trichloroacetic acid (TCA) for 1 hour in the cold room, and were dried overnight at room temperature. Then, cells were incubated with SRB for 15 min, washed twice with 1% acetic acid, and air dried for at least 1 hour. Finally, the protein-bound dye was dissolved in a 10 mM Tris, pH 8.8 solution and read using the plate reader at 540-nm. Using the SRB assay, the inventors selected only the compounds depleting ATP levels without prominent cytotoxicity for further analysis. Prominent cytotoxicity was defined as fewer than 30% of cells still on the plate. Of course, embodiments employing other cell viability confirmation methodology may select compounds for further analysis based on other considerations as may be known in the art.
(§2) Based on this analysis, the inventors assessed the functional effects of the three candidates on overall viability in MCF7 cell monolayers and normal human fibroblasts (hTERT-BJ1 cells) (FIG. 6). […]

[4] = system: hTERT-BJ1 cells; assay: Cell viability of normal fibroblasts; type: cell-based; conditions: 5 μM, normal human fibroblasts, FIG. 6
Procedure: as §1, §2

[5] = system: P. auriginosa ATCC 27853; assay: MIC by broth dilution method; type: cell-based, P. aeruginosa
Procedure: (§3) The minimal inhibitory concentration (MIC) of the antibacterial compounds may be determined using the broth dilution method, according to CLSI guidelines. Test compound solutions (or antibiotic solutions used as positive controls) were diluted, serially, with MHB medium. Then, the suspensions of the microorganisms, prepared from overnight cultures of bacteria in the MHB medium, at a concentration of 10^6 CFU/ml, were added to each dilution in a 1:1 ratio. McFarland standards were used as a reference to adjust the turbidity of microorganism suspensions. Growth (or lack thereof) of the microorganisms was determined after incubation for 24 hours at 37° C. by turbidimetry (wavelength of 600 nm). […] The susceptibility test by measurement of MIC was performed in triplicate and repeated three times independently.

[6] = system: MCF7 cells; assay: Mammosphere formation assay; type: cell-based, human; conditions: 5 μM, FIG. 5
Description: The present approach involves methods of testing compounds, and in particular mitoriboscins, for anti-cancer properties. As discussed above, vHTS and computational chemistry may be used to identify candidate mitochondrial inhibitors. Those candidates may be tested for specific anti-cancer properties. For examples, the inventors compared seven candidate compounds in parallel for their ability to inhibit mammosphere formation in MCF7 cells. […] For example, 23/G4 (Group 1) reduced mammosphere formation by 50% at this concentration. Similarly, 24/F9 (Group 2) and 24/D4 (Group 3), both reduced mammosphere formation by ˜90%.

[7] = system: C. albicans; assay: MIC by broth dilution method; type: cell-based; conditions: C. albicans ATCC 13883
Procedure: as §3, with “nm). MIC 50 and MIC 99 are defined as the minimum inhibitory concentration of the compound required for 50% and 99% inhibition of bacterial growth.” for “nm).”, “independently. Statistical significance was determined using the Student's t-test and values of less than 0.05 were considered significant.” for “independently.”
(§4) In order to determine the minimal inhibitory concentration (MIC) for 24/F9, 24/D4 and 23/G4, the broth dilution method may be performed.

[8] = system: Staph. aureus ATCC 25923 (MSSA); assay: MIC by broth dilution method; type: cell-based
Procedure: as §3

[9] = system: Strept. pyogenes ATCC 19615; assay: MIC by broth dilution method; type: cell-based
Procedure: as §3

[10] = system: K. pneumoniae ATCC 13883; assay: MIC by broth dilution method; type: cell-based
Procedure: as §3

[11] = system: E. coli ATCC 25922; assay: MIC by broth dilution method; type: cell-based; conditions: E. coli ATCC 25922, 24 hours at 37° C.
Procedure: as §3

[12] = system: MRSA ATCC 43300; assay: MIC by broth dilution method; type: cell-based, Methicillin-resistant Staphylococcus aureus
Procedure: as §3, with “nm). MIC 50 and MIC 99 are defined as the minimum inhibitory concentration of the compound required for 50% and 99% inhibition of bacterial growth.” for “nm).”, “independently. Statistical significance was determined using the Student's t-test and values of less than 0.05 were considered significant.” for “independently.”
as §4

[13] = Staph. aureus ATCC 25923 (Table 3)

## CC[C@H]1OC(=O)[C@H](C)[C@@H](O[C@H]2C[C@@](C)(OC)[C@@H](O)[C@H](C)O2)[C@H](C)[C@@H](O[C@@H]2O[C@H](C)C[C@H](N(C)C)[C@H]2O)[C@](C)(O)C[C@@H](C)C(=O)[C@H](C)[C@@H](O)[C@]1(C)O [Erithromycin]
[1]
  efficacy in cancer cell lines: show efficacy

## OC1C(NCc2ccccc2)CCCC1Oc1ccccc1Oc1ccc(Cl)cc1 (stereo not shown) [23/G4]
[2]; 500 nM
  reduction of ATP levels: > 50%
[2]; 2.5 μM, FIG. 7
  reduction of ATP levels: ~75%
[2]; 5 μM, FIG. 10
  reduction in ATP levels: greater than 75%
[2]; ECAR
  increase in glycolysis rates: more than 1.5 fold
[2]; FIGS. 7, 8 and 9
  inhibition of mitochondrial oxygen-consumption: dose-dependently inhibited
[2]; top 10 hits, FIG. 10
  rank order potency to reduce maximal respiration and ATP production: top 6
[3]; 500 nM and 2.5 μM
  effect on overall cell viability of MCF7 monolayers: little or no effect
[3]; 5 μM
  reduction of viability of MCF7 cells: 70%
[4]
  effect on viability of hTERT-BJ1 cells: no effect
[5]
  MIC 50%: 16 µg/mL (≈ 37.7 µM)
  MIC 99%: 32 µg/mL (≈ 75.5 µM)
[6]
  reduction of mammosphere formation: 50%
[7]
  MIC 50%: 8 µg/mL (≈ 18.9 µM)
  MIC 99%: 16 µg/mL (≈ 37.7 µM)
[8]; MSSA ATCC 25923 (Table 4)
  MIC 50%: 4 µg/mL (≈ 9.44 µM)
  MIC 99%: 8 µg/mL (≈ 18.9 µM)
[8]; [13]
  MIC 50%: 4 µg/mL (≈ 9.44 µM)
  MIC 99%: 8 µg/mL (≈ 18.9 µM)
[9]
  MIC 50%: 4 µg/mL (≈ 9.44 µM)
  MIC 99%: 8 µg/mL (≈ 18.9 µM)
[10]
  MIC 50%: 16 µg/mL (≈ 37.7 µM)
  MIC 99%: 32 µg/mL (≈ 75.5 µM)
[11]
  MIC 50%: >16 µg/mL
  MIC 99%: >32 µg/mL
[12]; MRSA ATCC 43300
  MIC 50%: 16 µg/mL (≈ 37.7 µM)
  MIC 99%: >32 µg/mL
[12]; MRSA, summary of Table 4
  sensitivity of MRSA: sensitive
